Reference: US20160122342A1, “ENHANCER OF ZESTE HOMOLOG 2 INHIBITORS” (GLAXOSMITHKLINE INTELLECTUAL PROPERTY (NO.2) LIMITED, priority 2013, published 2016)
Where two headings read alike, the source gives them in different places.

Conditions: rcm bond, DCM

CCN(c1cccc2c1C/C=C\COc1cc(C)nc(OC)c1CNC2=O)C1CCOCC1
ring closure, isolated yield (from C=CCOc1cc(C)nc(OC)c1CNC(=O)c1cccc(N(CC)C2CCOCC2)c1CC=C, 12-membered ring, Grubbs II (10+10 mol%, then 10 mg), 19.5 mM, 25.0 °C, 132.0 h): 19%

CCN(c1cccc2c1CC=CCCCCc1cc(C)nc(OC)c1CNC2=O)C1CCOCC1
ring closure, isolated yield (from C=CCCCCc1cc(C)nc(OC)c1CNC(=O)c1cccc(N(CC)C2CCOCC2)c1CC=C, 14-membered ring, Grubbs II (10 mol%, then ca. 10 mg), 15.8 mM, 25.0 °C, 22.0 h): 73.1%

CCN(c1cccc2c1CC=CCCc1cc(C)nc(OC)c1CNC2=O)[C@H]1CC[C@@H](NC(=O)OC(C)(C)C)CC1
ring closure, isolated yield (from C=CCCc1cc(C)nc(OC)c1CNC(=O)c1cccc(N(CC)[C@H]2CC[C@@H](NC(=O)OC(C)(C)C)CC2)c1CC=C, 12-membered ring, Hoveyda-Grubbs II (2 x 20 mol%), 39.8 mM, 55.0 °C, 72.0 h): 57.8%
